The text below walks through data of patent US20110237448A1, “CARBOHYDRATE BINDING MODULE WITH AFFINITY FOR INSOLUBLE XYLAN” (The Board of Trustees of the University of Illinois, priority 2009, published 2011).

Assay [1] deals with T1, Fibrobacter succinogenes S85 acetylxylan esterase FSUAxe6B (Axe6B, FSU2267), wild-type (WT), SEQ ID NO: 31 (Fibrobacter succinogenes, UniProt C9RS24).
T1 sequence (C9RS24 30-552): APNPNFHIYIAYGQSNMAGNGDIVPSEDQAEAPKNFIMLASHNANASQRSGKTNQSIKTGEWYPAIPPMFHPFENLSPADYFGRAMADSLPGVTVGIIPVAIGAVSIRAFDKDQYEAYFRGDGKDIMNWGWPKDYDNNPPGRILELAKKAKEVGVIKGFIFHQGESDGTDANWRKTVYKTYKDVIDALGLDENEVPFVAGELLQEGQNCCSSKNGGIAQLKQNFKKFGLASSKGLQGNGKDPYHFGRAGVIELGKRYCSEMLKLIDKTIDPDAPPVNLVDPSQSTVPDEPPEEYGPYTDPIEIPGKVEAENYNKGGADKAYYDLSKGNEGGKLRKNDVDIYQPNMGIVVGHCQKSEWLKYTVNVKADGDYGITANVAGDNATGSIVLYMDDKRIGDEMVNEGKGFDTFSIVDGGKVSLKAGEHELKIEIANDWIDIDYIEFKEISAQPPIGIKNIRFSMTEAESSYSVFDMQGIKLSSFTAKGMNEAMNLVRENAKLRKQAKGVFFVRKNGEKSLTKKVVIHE
As to the kind of experiment: Steady state kinetic analysis of acetylxylan esterase activity, FSUAxe6B wild-type (WT). The assay is classed as biochemical. To be noted: tetra-acetyl-xylopyranoside as substrate, 37° C. As to the method:
Assays were carried out at 37° C. Five microliters of 1 μM enzyme and 20 μl of R2 enzyme solution (containing acetate kinase, pyruvate kinase, and […] in 100 mM Tris-HCl, pH 7.4, 3 mM MgCl2) were thoroughly mixed. The tetra-acetyl-xylopyranoside was prepared in […] of R1 solution (NADH, ATP, phospho-enol-pyruvate, and pyruvate). The concentrations of the ingredients R1 and R2 solutions were pre-determined by the manufacturer (Megazyme). Both solutions were incubated separately at 37° C. for 3 min to allow equilibration, and then mixed to start the reaction. Initial rates were plotted against the tetra-acetyl-xylopyranoside concentrations, and the kinetic parameters were determined by Michaelis-Menten equation utilizing Graph Pad Prism v5.01.
Enzyme assays and steady state kinetics—Acetylxylan esterase activity was assayed using tetra-acetyl-xylopyranoside (Toronto Research Chemicals Inc., Ontario, Canada) for all proteins in this study, and the released of acetic acid was measured using an acetic acid detection kit (Megazyme, Bray, Ireland) following the manufacturer's instructions. The reduction of NADH was monitored continuously at an absorbance of 340 nm using Synergy 2 Microplate reader (BioTek, Winooski, Vt.) using the path-length correction feature. All assays were carried out at 37° C. […]

In assay [2] the target is T2, Fibrobacter succinogenes S85 FSUAxe6B truncational mutant TM1 (CE6+CBM6) (Fibrobacter succinogenes, UniProt C9RS24).
T2 construct: primers F1/R2, modified pET-28a, E. coli BL21(DE3), purified
T2 sequence (C9RS24 30-479 limits assumed): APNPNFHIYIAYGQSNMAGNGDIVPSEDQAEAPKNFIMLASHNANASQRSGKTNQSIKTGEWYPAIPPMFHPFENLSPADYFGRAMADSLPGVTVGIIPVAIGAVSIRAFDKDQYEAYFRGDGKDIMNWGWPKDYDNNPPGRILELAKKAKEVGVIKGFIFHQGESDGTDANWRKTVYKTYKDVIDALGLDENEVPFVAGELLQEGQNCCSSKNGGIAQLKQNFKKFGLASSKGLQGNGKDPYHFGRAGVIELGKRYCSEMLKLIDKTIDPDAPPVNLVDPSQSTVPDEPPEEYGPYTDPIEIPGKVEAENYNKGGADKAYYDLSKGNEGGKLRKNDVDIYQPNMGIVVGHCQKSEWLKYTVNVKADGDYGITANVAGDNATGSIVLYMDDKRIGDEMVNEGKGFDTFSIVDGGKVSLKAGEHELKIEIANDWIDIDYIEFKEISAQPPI
Put plainly: Steady state kinetic analysis, truncational mutant TM1. It is filed as biochemical. Particulars: tetra-acetyl-xylopyranoside as substrate, 37° C. An excerpt:
(§1) To delineate and investigate the modules present in FSUAxe6B for functional role assignments, a gene truncation strategy was adopted. To create the truncated proteins, the glycines in loop regions were selected as the terminal amino acids of our constructs. The construct TM1 (CE6+CBM6) was designed to investigate the contribution of FPd-1 to the wild-type (WT) protein in terms of its catalytic (esterase) and carbohydrate binding activities. Likewise, TM2 (CE6) was constructed for identifying the role of the putative CBM6 on the two potential functions of the protein. […]
(§2) Assays were carried out at 37° C. […] The concentrations of the ingredients R1 and R2 solutions were pre-determined by the manufacturer (Megazyme). […] Initial rates were plotted against the tetra-acetyl-xylopyranoside concentrations, and the kinetic parameters were determined by Michaelis-Menten equation utilizing Graph Pad Prism v5.01.
(§3) Enzyme assays and steady state kinetics—Acetylxylan esterase activity was assayed using tetra-acetyl-xylopyranoside (Toronto Research Chemicals Inc., Ontario, Canada) for all proteins in this study, and the released of acetic acid was measured using an acetic acid detection kit (Megazyme, Bray, Ireland) following the manufacturer's instructions. […] The concentrations of the ingredients R1 and R2 solutions were pre-determined by the manufacturer (Megazyme). […]

Assay [3] has as its target T3, Fibrobacter succinogenes S85 FSUAxe6B truncational mutant TM2 (CE6) (Fibrobacter succinogenes, UniProt C9RS24).
T3 construct: primers F1/R3, modified pET-28a, E. coli BL21(DE3), purified
T3 sequence (C9RS24 30-297): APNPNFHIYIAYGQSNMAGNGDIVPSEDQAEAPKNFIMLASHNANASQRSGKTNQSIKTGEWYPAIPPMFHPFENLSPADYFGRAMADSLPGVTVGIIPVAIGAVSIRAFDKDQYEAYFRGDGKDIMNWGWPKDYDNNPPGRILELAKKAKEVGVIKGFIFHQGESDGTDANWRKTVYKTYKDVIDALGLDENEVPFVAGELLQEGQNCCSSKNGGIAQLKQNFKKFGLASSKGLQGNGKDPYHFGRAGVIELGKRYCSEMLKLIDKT
As to the kind of experiment: Steady state kinetic analysis, truncational mutant TM2. Particulars: tetra-acetyl-xylopyranoside as substrate, 37° C., means ± standard errors. It is filed as biochemical.
Description: as §1, §2, §3

Assay [4] has as its target T4, Fibrobacter succinogenes S85 FSUAxe6B variant E194N (Fibrobacter succinogenes, UniProt C9RS24, E194N).
T4 sequence (C9RS24 30-552 E194N): T1 sequence (C9RS24 30-552) with E165N
Put plainly: Steady state kinetic analysis, E194N mutant. Particulars: tetra-acetyl-xylopyranoside as substrate, 37° C., 10 μM E194N protein. It is filed as biochemical. The method, then: (§4) Site-directed mutagenesis—Site-directed mutagenesis was carried out using the QuikChange Multi Site-Directed Mutagenesis Kit (Stratagene), according to the manufacturer's instructions.
(§5) Enzyme assays and steady state kinetics—Acetylxylan esterase activity was assayed using tetra-acetyl-xylopyranoside (Toronto Research Chemicals Inc., Ontario, Canada) for all proteins in this study, and the released of acetic acid was measured using an acetic acid detection kit (Megazyme, Bray, Ireland) following the manufacturer's instructions. The reduction of NADH was monitored continuously at an absorbance of 340 nm using Synergy 2 Microplate reader (BioTek, Winooski, Vt.) using the path-length correction feature. All assays were carried out at 37° C. […] The concentrations of the ingredients R1 and R2 solutions were pre-determined by the manufacturer (Megazyme). […] For active-site mutants with lower activity, the kinetic parameters were determined at a concentration of 10 μM for E194N protein and 2 μM for E194A, D270N, and D270A proteins, respectively. Initial rates were plotted against the tetra-acetyl-xylopyranoside concentrations, and the kinetic parameters were determined by Michaelis-Menten equation utilizing Graph Pad Prism v5.01.

In assay [5] the target is T5, Fibrobacter succinogenes S85 FSUAxe6B variant E194A (Fibrobacter succinogenes, UniProt C9RS24, E194A).
T5 sequence (C9RS24 30-552 E194A): T1 sequence (C9RS24 30-552) with E165A
As to the kind of experiment: Steady state kinetic analysis, E194A mutant. To be noted: tetra-acetyl-xylopyranoside as substrate, 37° C., 2 μM E194A protein. The assay is classed as biochemical. As to the method:
as §4, §5

For assay [6], the target named is T6, Fibrobacter succinogenes S85 FSUAxe6B variant D270A (Fibrobacter succinogenes, UniProt C9RS24, D270A).
T6 sequence (C9RS24 30-552 D270A): T1 sequence (C9RS24 30-552) with D241A
Put plainly: Steady state kinetic analysis, D270A mutant. It is filed as biochemical. To be noted: tetra-acetyl-xylopyranoside as substrate, 37° C., 2 μM D270A protein. As to the method:
as §4, §5

Assay [7] relates to Fibrobacter succinogenes S85 acetylxylan esterase Axe6A. To be noted: from ref. 16; substrate not stated at the place; cited from earlier work.
The test system of assay [8] is Fibrobacter succinogenes S85 acetylxylan esterase Axe6B. Particulars: comparison with Axe6A; substrate not stated at the place; cited from earlier work.
Assay [9] addresses Fibrobacter succinogenes S85 FSUAxe6B truncational mutant TM5 (FPd-1 domain), SEQ ID NO: 2 (Fibrobacter succinogenes, UniProt C9RS24). As to the kind of experiment: Isothermal titration calorimetric (ITC) analysis of TM5 (FPd-1 domain). To be noted: 25° C., 100 μM protein, 50 mM Na2HPO4—HCl buffer pH 7.0, 100 mM NaCl. The assay is classed as binding. As to the method: Isothermal titration calorimetric analysis was conducted to determine whether the FPd-1 domain can bind to soluble substrates. TM5 was tested for binding with arabinoxylan, xylobiose, and xylopentaose (FIG. 10). If there is binding affinity between two materials, a binding heat that follows a pattern such as that for CaCl2 vs. EDTA in the positive control will be observed.
For isothermal titration calorimetric (ITC) analysis, measurements were performed at 25° C. using a VP-ITC calorimeter (MicroCal, Inc, Northhampton, Mass.) following the manufacturer's recommended procedures. All samples were extensively dialyzed against 50 mM Na2HPO4—HCl buffer (pH 7.0), 100 mM NaCl, and all ligands were dissolved in the same buffer. The protein sample (100 μM) was injected with successive 10-μl aliquots of ligand at 300-s intervals.
A general note: Isothermal titration calorimetry measures the heat released or taken up as one component is titrated into another.

Residue numbers refer to the chain shown, from its start. “Also recorded” adds a separate entry of the source.

As to `CC(=O)O[C@@H]1OC[C@@H](OC(C)=O)[C@H](OC(C)=O)[C@H]1OC(C)=O` [tetra-acetyl-xylopyranoside], the kcat/Km – broadly, the second-order rate constant that governs catalysis at low substrate concentration – stood at 190000 M⁻¹ s⁻¹ in [1]; 170000 M⁻¹ s⁻¹ in assay [2]; 400 M⁻¹ s⁻¹ in [4]; 14000 M⁻¹ s⁻¹ in [5]; 9000 M⁻¹ s⁻¹ in [6]. Moreover, the kcat (in general, the number of substrate molecules converted per active site and unit of time at saturation) in assay [1] (means ± standard errors) is 15 s⁻¹; in [3], 13 s⁻¹; in assay [4], 2.8 s⁻¹; in assay [5], 2.9 s⁻¹; in assay [6] it was 1.8 s⁻¹. Besides, the Km – broadly, the concentration of substrate that gives half-maximal velocity – in assay [7] was 80 µM; in [8], 60 µM.

In the case of `OC1OC[C@@H](O[C@@H]2OC[C@@H](O)[C@H](O)[C@H]2O)[C@H](O)[C@H]1O` (some centres unmarked) [xylobiose], in assay [9], the ITC binding entry is recorded as “no significant peaks were observed; also recorded: does not bind”.

With `OC1OC[C@@H](O[C@@H]2OC[C@@H](O[C@@H]3OC[C@@H](O[C@@H]4OC[C@@H](O[C@@H]5OC[C@@H](O)[C@H](O)[C@H]5O)[C@H](O)[C@H]4O)[C@H](O)[C@H]3O)[C@H](O)[C@H]2O)[C@H](O)[C@H]1O` (some centres unmarked) [xylopentaose], the ITC binding entry in assay [9] is given as “no significant peaks were observed; also recorded: does not bind”.
